We go through six compounds from patent US6008356A, “Pharmaceutically available protoberberine salts derivatives, and protoberberine salts derivatives, and protoberberine derivatives and salts thereof” (priority 1998, dated 1999).

In data set [1] the test system is Gram-negative or Gram-positive bacteria, such as Staphylococcus aureus, Staphylococcus hemolyticus, Salmonella typhosa, Shigella dysenteriae, Shigella …. To be noted: cited from earlier work.
In another data set the test system is C. albicans ATCC 10231. Put plainly: MIC. The format is cell-based. To be noted: Candida albicans, ATCC10231; C. albicans ATCC 10231; read-out: MIC.
Another data set deals with C. albicans ATCC 28838. Put plainly: MIC. The format is cell-based, Candida albicans. The conditions noted are these: Candida albicans, ATCC28838; C. albicans ATCC 28838; read-out: MIC.
The subject of a further data set is C. albicans ATCC 11651. Put plainly: MIC. The format is cell-based, Candida albicans. The conditions noted are these: Candida albicans, ATCC11651; C. albicans ATCC 11651; read-out: MIC.
A further data set has as its system C. albicans KCTC 1940. Put plainly: MIC. It is filed as cell-based, Candida albicans. The conditions noted are these: Candida albicans, KCTC1940; C. albicans KCTC 1940; read-out: MIC.
For a further data set, the system named is C. albicans U.K. Put plainly: MIC. It is filed as cell-based. The conditions noted are these: Candida albicans; C. albicans U.K.; read-out: MIC.
Another data set relates to C. albicans OY 019. Put plainly: MIC. The format is cell-based, Candida albicans. To be noted: Candida albicans, OY019; C. albicans OY 019; read-out: MIC.
The next data set relates to C. albicans OY 003. Put plainly: MIC. The format is cell-based, Candida albicans. The conditions noted are these: Candida albicans, OY003; C. albicans OY 003; read-out: MIC.
Another data set deals with C. albicans IFO 1385. Put plainly: MIC. It is filed as cell-based, Candida albicans. To be noted: Candida albicans, IFO1385; C. albicans IFO 1385; read-out: MIC.
In the next data set the test system is C. parapsilosis. Put plainly: MIC. It is filed as cell-based. The conditions noted are these: Lodderomyces parapsilosis; C. parapsilosis; read-out: MIC.
The next data set has as its system C. glabrata. Put plainly: MIC. The format is cell-based. To be noted: Nakaseomyces glabratus; C. glabrata; read-out: MIC.
For another data set, the system named is C. glulliermendi. Put plainly: MIC. It is filed as cell-based. To be noted: C. glulliermendi; read-out: MIC.
The next data set deals with C. krusei. Put plainly: MIC. It is filed as cell-based. To be noted: Pichia kudriavzevii; C. krusei; read-out: MIC.
In another data set the test system is E. floccosum. Put plainly: MIC. It is filed as cell-based, Epidermophyton floccosum. To be noted: Epidermophyton floccosum; E. floccosum; read-out: MIC.
The test system of a further data set is Epidermophyton floccosum. Put plainly: Antifungal efficacy of creamy formulation against local fungal skin infection. To be noted: 0.5% cream, topical. It is filed as in vivo, mouse (SKH/1, hairless, male). The protocol:
Specific pathogen free SKH/1 male mouse(Hairless) of which weight is 30-35 g and age is 5 weeks, was reared with sterilized water and feed for 12 night/day in the condition of 21-23° C. and of 50% relative humidity. Five mice were allocated by each group. After skin infection, each mouse was taken in separate cage. The strain of microorganism for infection(Epidermophyton floccosum) was cultivated on a flat medium of SDA(Sabouraud Dextrose Agar) for 5-7 days and after confirmation of macrocomidia, 3 ml of RPMI (Rosewell Park Memorial Institute) 1640 media per each flat medium was added thereto and then scraped well using loop to remove hyphae from media. The floating liquid was suspended briefly and then diluted with RPMI 1640 media to adjust the concentration of hyphae to 2×10^6 CFU/ml. Mouse was anesthetized and marked on back site(lumbosacral area) in a shape of circle of which diameter is 1.5 cm. Then, the inner part of marked skin was scratched with sand paper. The scratched part was covered with a filter paper to preserve inoculated microorganism for a long time and thereby stimulating the skin continuously. 0.2 ml of fungus solution of which concentration is adjusted as described above, was inoculated between the skin and filter paper. 5 Days after the inoculation, the filter paper was removed and the infection of skin was examined. The test formulations, 0.5% creamy formulations of the compounds Nos. 62 and 85, 1.0% creamy formulation of Terbinafine(Lamisile cream) and a placebo was applied on the infected areas in a same amount once a day for 5 days. The clinical evaluation on the change of the infected area in 5 days after the inoculation was performed and expressed numerically from 0 to 4. The daily change of the infected area was checked every day. The result of each group was compared with each other.
1: Mild erythema or small number of skin eruption
2: Well-demarcated erythema with scales or mild skin eruption of infected area
3: Wide area of marked skin eruption, scales, swelling or severe skin eruption with partial swelling and scales
4: The same as those of control, or severe skin eruption in entire lesion
The result was calculated as follows;
T: Average score of clinical evaluation in drug treated area
K: Average score of clinical evaluation in placebo control group
Moreover, the antifungal efficacies of the 0.5% creamy formulation of the compounds Nos. 29, 35, 60, 62, 63 and 85, and 1% creamy formulation of Terbinafme (Lamisil cream), which are measured by applying the above formulations on the skin infected with Epidermophyton floccosum of mouse which is the standard animal for the test of local fungal skin infection, i.e, Specific Pathogen Free SKH/1, are described in the following Table 4.

A further data set is described as follows: acute oral toxicity. The conditions noted are these: rat, in vivo, po, rats. The protocol: (§1) Meanwhile, the toxicity test of the compound of the present invention was performed using […]. The compound was suspended in propylene glycol. The resulting suspension was medicated respectively on 5 female rats and 5 male rats(SD) of which age are 5 weeks, via oral after 12 hour starvation. The general symtoms, weight change and lethal case of the above rats were investigated. In cases of tests of the compound Nos. 25, 62, 63 and 85 (delivery of 2,000 mg/kg), the general symtom and weight change were normal and the lethal case was not observed. […] The toxicity data on the compound Nos. 25, 62, 63 and 85 are described in the following Table 5. In light forgoings, the compounds of the present invention are safe in toxicity and have the excellent lethal effect and growth-inhibition effect against fungus.

The test system of the next data set is rats. Put plainly: acute oral toxicity. To be noted: rat, in vivo. The protocol: as §1
A further data set relates to salmonella typhimurium. Put plainly: bacterial reverse mutation test (Ames test). The format is cell-based. (The Ames test detects mutagens through reverse mutation in bacteria.)
The test system of data set [2] is cultured lung cells derived from chinese hamster. The format is cell-based.
A further data set deals with male ICR mice. To be noted: mouse, in vivo.

In the case of `COc1ccc2c(c1OC)CN1CCc3cc4c(cc3C1C2)OCO4` (centres unmarked) [tetrahydroberberine], the “antibacterial effect of derivatives without quaternary ammonium salt” value in data set [1] (Pitea et al. 1972) is listed as “exhibits less effect”.

Usually MIC stands for the smallest concentration in the dilution series that meets the test's criterion for growth inhibition. On to `COc1ccc2c(Cc3ccc(-c4ccccc4)cc3)c3[n+](cc2c1OC)CCc1cc2c(cc1-3)OCO2` [compound 35, 13-(4-phenylbenzyl)berberine chloride], for which the minimum inhibitory concentration (MIC) in the data set with C. albicans ATCC 10231 was 6.25 µg/mL; in the data set on C. albicans ATCC 28838, 1.56 µg/mL; in the data set on C. albicans ATCC 11651, 0.78 µg/mL; with C. albicans KCTC 1940, 0.78 µg/mL; in the data set with C. albicans U.K., 12.5 µg/mL; in the data set with C. albicans OY 019, 1.56 µg/mL. The MIC in the data set on C. albicans OY 003 is 0.78 µg/mL; in the data set with C. albicans IFO 1385 it was 6.25 µg/mL; with C. parapsilosis, above 100 µg/mL; with C. glabrata, above 100 µg/mL; in the data set on C. glulliermendi, 12.5 µg/mL; in the data set with C. krusei it was 3.12 µg/mL. In addition, the MIC in the data set with E. floccosum is 12.5 µg/mL. Besides, in the data set on Epidermophyton floccosum, the “Efficacy (%) 0 day later” value is 0%. Further, the “Efficacy (%) 1 day later” value in the data set on Epidermophyton floccosum is reported as 36.0%. Also, the “Efficacy (%) 2 day later” value with Epidermophyton floccosum is recorded as 57.9%. Also, the “Efficacy (%) 3 day later” value with Epidermophyton floccosum was 68.4%. The “Efficacy (%) 4 day later” value with Epidermophyton floccosum amounted to 72.2%. Further, the “Efficacy (%) 5 day later” value in the data set with Epidermophyton floccosum is on record as 74.0%. Also, the “Efficacy (%) 6 day later” value with Epidermophyton floccosum was 75.4%. Further, the “Efficacy (%) 7 day later” value in the data set on Epidermophyton floccosum amounted to 76.8%.

What is called LD50 is the dose at which mortality reaches 50%. Lower therefore signals a more toxic substance. Consider `CCCOc1cc2c(cc1OCCC)-c1cc3ccc(OCCC)c(OCCC)c3c[n+]1CC2` [compound 85, 2,3,9,10-tetrapropoxy protoberberine iodide], for which the MIC in the data set with C. albicans ATCC 10231 worked out at 6.25 µg/mL; with C. albicans ATCC 28838, 0.78 µg/mL; with C. albicans ATCC 11651, 0.4 µg/mL; with C. albicans KCTC 1940 it was 0.4 µg/mL; with C. albicans U.K. it was 50 µg/mL; in the data set on C. albicans OY 019 it was 0.4 µg/mL. Besides, the MIC in the data set with C. albicans OY 003 is 0.4 µg/mL; in the data set on C. albicans IFO 1385 it was 6.25 µg/mL; in the data set with C. parapsilosis, 12.5 µg/mL; with C. glabrata, above 100 µg/mL; in the data set with C. glulliermendi it was above 100 µg/mL; with C. krusei, 1.56 µg/mL. Further, the MIC in the data set on E. floccosum was above 100 µg/mL. Further, the “Efficacy (%) 0 day later” value in the data set on Epidermophyton floccosum is given as 0%. In addition, in the data set on Epidermophyton floccosum, the “Efficacy (%) 1 day later” value stood at 34.5%. The “Efficacy (%) 2 day later” value in the data set with Epidermophyton floccosum worked out at 38.8%. The “Efficacy (%) 3 day later” value in the data set with Epidermophyton floccosum turned out to be 42.5%. The “Efficacy (%) 4 day later” value in the data set with Epidermophyton floccosum stood at 54.6%. For the same compound, the “Efficacy (%) 5 day later” value in the data set with Epidermophyton floccosum was 63.2%. Further, the “Efficacy (%) 6 day later” value in the data set with Epidermophyton floccosum was 68.0%. The “Efficacy (%) 7 day later” value with Epidermophyton floccosum was 70.5%. The LD50 in “acute oral toxicity” (female) and in “acute oral toxicity” (male) was above 5000 mg/kg in each case. In the data set on rats, the lethal case entry is “not observed”. Also, the AMES test entry in the data set with salmonella typhimurium is “negative”. The chromosome abnormality test result in [2] is listed as “negative”. In addition, the “nucleus test (micronucleous test)” value in the data set with male ICR mice is “negative”.

`COc1ccc2c(Cc3cccc(C(F)(F)F)c3)c3[n+](cc2c1OC)CCc1cc2c(cc1-3)OCO2` [compound 25, 13-(3-trifluoromethylbenzyl)berberine chloride]: the LD50 is above 2500 mg/kg in the data set “acute oral toxicity” (female) and above 3000 mg/kg in the data set “acute oral toxicity” (male). Moreover, the lethal case entry in the data set with rats was “not observed”. The AMES test entry with salmonella typhimurium is “negative”. Moreover, the chromosome abnormality test entry in [2] was “negative”. In the data set with male ICR mice, the “nucleus test (micronucleous test)” value is given as “negative”.

For `COc1ccc2cc3[n+](cc2c1OC)CCc1cc2c(cc1-3)OCO2` [Berberine chloride], the antibacterial activity entry in data set [1] (Ukita et al. 1949) is on record as “exhibits antibacterial activity”.

With `COc1ccc2c(Cc3ccc(C(C)C)cc3)c3[n+](cc2c1OC)CCc1cc2c(cc1-3)OCO2` [compound 63, 13-(4-i-propylbenzyl)berberine chloride], the MIC with C. albicans ATCC 10231 turned out to be 6.25 µg/mL; with C. albicans ATCC 28838, 0.78 µg/mL; in the data set with C. albicans ATCC 11651, 0.78 µg/mL; in the data set with C. albicans KCTC 1940 it was 1.56 µg/mL; in the data set on C. albicans U.K., 6.25 µg/mL; with C. albicans OY 019, 1.56 µg/mL. In addition, the MIC in the data set with C. albicans OY 003 was 6.25 µg/mL; in the data set with C. albicans IFO 1385, 6.25 µg/mL; in the data set on C. parapsilosis it was above 100 µg/mL; in the data set with C. glabrata, above 100 µg/mL; in the data set with C. glulliermendi it was 12.5 µg/mL; with C. krusei it was 3.12 µg/mL. In addition, the MIC in the data set with E. floccosum stood at 12.5 µg/mL. In the data set with Epidermophyton floccosum, the “Efficacy (%) 0 day later” value came to 0%. For the same compound, in the data set on Epidermophyton floccosum, the “Efficacy (%) 1 day later” value turned out to be 42.5%. In addition, the “Efficacy (%) 2 day later” value in the data set on Epidermophyton floccosum is 52.5%. For the same compound, in the data set with Epidermophyton floccosum, the “Efficacy (%) 3 day later” value is on record as 59.8%. Besides, the “Efficacy (%) 4 day later” value with Epidermophyton floccosum was 64.6%. Further, the “Efficacy (%) 5 day later” value in the data set on Epidermophyton floccosum came out at 73.6%. The “Efficacy (%) 6 day later” value in the data set on Epidermophyton floccosum worked out at 75.6%. The “Efficacy (%) 7 day later” value with Epidermophyton floccosum came to 80.2%. The median lethal dose (LD50) was above 2000 mg/kg in the data set “acute oral toxicity” (female) and above 2500 mg/kg in “acute oral toxicity” (male). Also, the lethal case result in the data set on rats was “not observed”. The AMES test entry in the data set on salmonella typhimurium was “negative”. In data set [2], the chromosome abnormality test entry is “negative”. Also, the “nucleus test (micronucleous test)” value with male ICR mice is listed as “negative”.
